Measurements as given in patent publication US11753407B2, “Compounds for treating spinal muscular atrophy” (PTC Therapeutics, Inc., priority 2012, dated 2023).

Tests used:
[1] = test system: SMN2 minigene mRNA (SMN2-A minigene) in HEK293H cells; test: SMN2 minigene mRNA splicing RT-qPCR assay in cultured cells; type: cell-based, human; conditions: Homo sapiens, HEK293-H; concentration increasing full length SMN2 mRNA 1.5-fold relative to vehicle-treated cells; HEK293H cells with SMN2-A minigene, 24 hours, 7-point concentration data; read-out: EC1.5x for production of full length SMN2 mRNA
Procedure, shortened: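 EC1.5× values derive from a 24 h treatment of SMN2-A minigene HEK293H cells and GAPDH-normalized RT-qPCR of exon 7-included minigene mRNA relative to vehicle-treated cells.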

[2] = test system: Smn protein in SMA patient fibroblast cells (GM03813); test: Smn protein assay in cultured cells (SMN HTRF); type: cell-based, human; conditions: SMA patient fibroblast cells, 48 hours; for EC1.5x for Smn protein expression: 7-point concentration curve, SMN HTRF, concentration producing 1.5 times Smn protein vs DMSO vehicle control; for maximum fold (Fold) increase of Smn protein: 7-point concentration data, fold relative to vehicle control
Procedure, shortened: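 Cells were cultured 72 h, seeded at 5,000/well and dosed with seven concentrations (3.16-fold apart) for 48 h. HTRF on lysates, read at 665 and 620 nm, gave blank-corrected ΔF values relative to DMSO. Potency is reported as EC1.5×, efficacy as maximal fold Smn increase.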

Row | melting point [°C] | Compound | EC (1.5-fold increase) [1] [µM] | EC1.5x for Smn protein expression [2] | maximum fold (Fold) increase of Smn protein [2]
1 | 255 to 257 | CCc1nc(C)cn2nc(-c3cc(=O)n4cc(N5CCN(CCF)[C@H](C)C5)ccc4n3)cc12 [Compound 666, 2-(4-ethyl-6-methylpyrazolo[1,5-a]pyrazin-2-yl)-7-[(3R)-4-(2-fluoroethyl)-3-methylpiperazin-1-yl]-4H-pyrido[1,2-a]pyrimidin-4-one] | 0.1 to 0.3 | *** (an EC1.5× between >0.3 μM and ≤1 μM is indicated by three stars (***)) | ***** (a fold increase >1.65 is indicated by five stars (*****))
2 | 244 to 246 | CCc1nc(C)cn2nc(-c3cc(=O)n4cc(N5CCN(CCCF)[C@H](C)C5)ccc4n3)cc12 [Compound 667, 2-(4-ethyl-6-methylpyrazolo[1,5-a]pyrazin-2-yl)-7-[(3R)-4-(3-fluoropropyl)-3-methylpiperazin-1-yl]-4H-pyrido[1,2-a]pyrimidin-4-one] | < 0.1 | **** (an EC1.5x≤0.3 μM is indicated by four stars (****)) | ***** (a fold increase >1.65 is indicated by five stars (*****))
3 | 206 to 208 | CCc1nc(C)cn2nc(-c3cc(=O)n4cc(C5CCN(CCF)CC5)ccc4n3)cc12 [Compound 668, 2-(4-ethyl-6-methylpyrazolo[1,5-a]pyrazin-2-yl)-7-[1-(2-fluoroethyl)piperidin-4-yl]-4H-pyrido[1,2-a]pyrimidin-4-one] | < 0.1 | **** (an EC1.5x≤0.3 μM is indicated by four stars (****)) | ***** (a fold increase >1.65 is indicated by five stars (*****))
4 | 216 to 218 | CCc1nc(C)cn2nc(-c3cc(=O)n4cc(C5CCN(CCCF)CC5)ccc4n3)cc12 [Compound 669, 2-(4-ethyl-6-methylpyrazolo[1,5-a]pyrazin-2-yl)-7-[1-(3-fluoropropyl)piperidin-4-yl]-4H-pyrido[1,2-a]pyrimidin-4-one] | < 0.1 | **** (an EC1.5x≤0.3 μM is indicated by four stars (****)) | ***** (a fold increase >1.65 is indicated by five stars (*****))
5 | 247 to 255 | Cc1cn2nc(-c3cc(=O)n4cc(C5CCNCC5)cc(C)c4n3)cc2c(C)n1 [Compound 671, 2-(4,6-dimethylpyrazolo[1,5-a]pyrazin-2-yl)-9-methyl-7-(piperidin-4-yl)-4H-pyrido[1,2-a]pyrimidin-4-one] | < 0.1 | **** (an EC1.5x≤0.3 μM is indicated by four stars (****)) | ***** (a fold increase >1.65 is indicated by five stars (*****))
6 | 273 to 281 | Cc1cn2nc(-c3cc(=O)n4cc(N5CCN(CCO)[C@H](C)C5)cc(C)c4n3)cc2c(C)n1 [Compound 673, 2-(4,6-dimethylpyrazolo[1,5-a]pyrazin-2-yl)-7-[(3R)-4-(2-hydroxyethyl)-3-methylpiperazin-1-yl]-9-methyl-4H-pyrido[1,2-a]pyrimidin-4-one] | < 0.1 | **** (an EC1.5x≤0.3 μM is indicated by four stars (****)) | **** (a fold increase between >1.5 and ≤1.65 is indicated by four stars (****))
7 | 262 to 266 | Cc1cn2cc(-c3cc(=O)n4cc(N5CCN(C)CC5)ccc4n3)cc(CO)c2n1 [Compound 677, 2-[8-(hydroxymethyl)-2-methylimidazo[1,2-a]pyridin-6-yl]-7-(4-methylpiperazin-1-yl)-4H-pyrido[1,2-a]pyrimidin-4-one] | < 0.1 | *** (an EC1.5× between >0.3 μM and ≤1 μM is indicated by three stars (***)) | ***** (a fold increase >1.65 is indicated by five stars (*****))
8 | 258 to 262 | CCN1CCN(c2ccc3nc(-c4cc(CO)c5nc(C)cn5c4)cc(=O)n3c2)CC1 [Compound 678, 7-(4-ethylpiperazin-1-yl)-2-[8-(hydroxymethyl)-2-methylimidazo[1,2-a]pyridin-6-yl]-4H-pyrido[1,2-a]pyrimidin-4-one] | < 0.1 | **** (an EC1.5x≤0.3 μM is indicated by four stars (****)) | ***** (a fold increase >1.65 is indicated by five stars (*****))
9 | 228 to 230 | CCc1nc(C)cn2nc(-c3cc(=O)n4cc(C5CCN(C(C)C)CC5)ccc4n3)cc12 [Compound 679, 2-(4-ethyl-6-methylpyrazolo[1,5-a]pyrazin-2-yl)-7-[1-(propan-2-yl)piperidin-4-yl]-4H-pyrido[1,2-a]pyrimidin-4-one] | < 0.1 | **** (an EC1.5x≤0.3 μM is indicated by four stars (****)) | ***** (a fold increase >1.65 is indicated by five stars (*****))
10 | 196 to 199 | CCc1nc(C)cn2nc(-c3cc(=O)n4cc(C5CCN(C6CC6)CC5)ccc4n3)cc12 [Compound 680, 7-(1-cyclopropylpiperidin-4-yl)-2-(4-ethyl-6-methylpyrazolo[1,5-a]pyrazin-2-yl)-4H-pyrido[1,2-a]pyrimidin-4-one] | < 0.1 | **** (an EC1.5x≤0.3 μM is indicated by four stars (****)) | ***** (a fold increase >1.65 is indicated by five stars (*****))
11 | 227 to 229 | CCc1nc(C)cn2nc(-c3cc(=O)n4cc(C5CCN(C6CCC6)CC5)ccc4n3)cc12 [Compound 681, 7-(1-cyclobutylpiperidin-4-yl)-2-(4-ethyl-6-methylpyrazolo[1,5-a]pyrazin-2-yl)-4H-pyrido[1,2-a]pyrimidin-4-one] | < 0.1 | **** (an EC1.5x≤0.3 μM is indicated by four stars (****)) | ***** (a fold increase >1.65 is indicated by five stars (*****))
12 | 190 to 192 | CCc1nc(C)cn2nc(-c3cc(=O)n4cc(C5CCN(C6COC6)CC5)ccc4n3)cc12 [Compound 682, 2-(4-ethyl-6-methylpyrazolo[1,5-a]pyrazin-2-yl)-7-[1-(oxetan-3-yl)piperidin-4-yl]-4H-pyrido[1,2-a]pyrimidin-4-one] | 0.3 to 1 | ** (an EC1.5× between >1 μM and ≤3 μM is indicated by two stars (**)) | ***** (a fold increase >1.65 is indicated by five stars (*****))
13 | 226 to 229 | Cc1cn2nc(-c3cc(=O)n4cc(N5CCNCC5)ccc4n3)cc2c(C2CC2)n1 [Compound 683, 2-(4-cyclopropyl-6-methylpyrazolo[1,5-a]pyrazin-2-yl)-7-(piperazin-1-yl)-4H-pyrido[1,2-a]pyrimidin-4-one] | < 0.1 | *** (an EC1.5× between >0.3 μM and ≤1 μM is indicated by three stars (***)) | ***** (a fold increase >1.65 is indicated by five stars (*****))
14 | 238 to 240 | Cc1cn2nc(-c3cc(=O)n4cc(N5CCN(C)CC5)ccc4n3)cc2c(C2CC2)n1 [Compound 684, 2-(4-cyclopropyl-6-methylpyrazolo[1,5-a]pyrazin-2-yl)-7-(4-methylpiperazin-1-yl)-4H-pyrido[1,2-a]pyrimidin-4-one] | 0.1 to 0.3 | *** (an EC1.5× between >0.3 μM and ≤1 μM is indicated by three stars (***)) | ***** (a fold increase >1.65 is indicated by five stars (*****))
15 | 236 to 238 | CCN1CCN(c2ccc3nc(-c4cc5c(C6CC6)nc(C)cn5n4)cc(=O)n3c2)CC1 [Compound 685, 2-(4-cyclopropyl-6-methylpyrazolo[1,5-a]pyrazin-2-yl)-7-(4-ethylpiperazin-1-yl)-4H-pyrido[1,2-a]pyrimidin-4-one] | 0.1 to 0.3 | ** (an EC1.5× between >1 μM and ≤3 μM is indicated by two stars (**)) | **** (a fold increase between >1.5 and ≤1.65 is indicated by four stars (****))
16 | 239 to 241 | Cc1cn2nc(-c3cc(=O)n4cc(N5CCN(CCO)CC5)ccc4n3)cc2c(C2CC2)n1 [Compound 686, 2-(4-cyclopropyl-6-methylpyrazolo[1,5-a]pyrazin-2-yl)-7-[4-(2-hydroxyethyl)piperazin-1-yl]-4H-pyrido[1,2-a]pyrimidin-4-one] | 0.3 to 1 | ** (an EC1.5× between >1 μM and ≤3 μM is indicated by two stars (**)) | ***** (a fold increase >1.65 is indicated by five stars (*****))
17 | 185 to 187 | CCCN1CCC(c2ccc3nc(-c4cc5c(C)nc(C)cn5n4)cc(=O)n3c2)CC1 [Compound 687, 2-(4,6-dimethylpyrazolo[1,5-a]pyrazin-2-yl)-7-(1-propylpiperidin-4-yl)-4H-pyrido[1,2-a]pyrimidin-4-one] | < 0.1 | **** (an EC1.5x≤0.3 μM is indicated by four stars (****)) | **** (a fold increase between >1.5 and ≤1.65 is indicated by four stars (****))
